Source: patent US9267129B2, “Compositions and methods for conferring herbicide resistance” (BEN-GURION UNIVERSITY OF THE NEGEV RESEARCH AND DEVELOPMENT …, priority 2011, dated 2016)

How the values were obtained:
PiAHAS wild-type [1] = biological target: T1, PiAHAS wild-type (Parietochloris incisa (Lobosphaera incisa), UniProt I3VJH2); experiment: PiAHAS in vitro enzyme assay, inhibition by SMM (wild type); format: biochemical; settings: wild-type AHAS; pyruvate 100 mM; 37° C., pH 7.6
T1 sequence (I3VJH2 1-707 D350G/R415C): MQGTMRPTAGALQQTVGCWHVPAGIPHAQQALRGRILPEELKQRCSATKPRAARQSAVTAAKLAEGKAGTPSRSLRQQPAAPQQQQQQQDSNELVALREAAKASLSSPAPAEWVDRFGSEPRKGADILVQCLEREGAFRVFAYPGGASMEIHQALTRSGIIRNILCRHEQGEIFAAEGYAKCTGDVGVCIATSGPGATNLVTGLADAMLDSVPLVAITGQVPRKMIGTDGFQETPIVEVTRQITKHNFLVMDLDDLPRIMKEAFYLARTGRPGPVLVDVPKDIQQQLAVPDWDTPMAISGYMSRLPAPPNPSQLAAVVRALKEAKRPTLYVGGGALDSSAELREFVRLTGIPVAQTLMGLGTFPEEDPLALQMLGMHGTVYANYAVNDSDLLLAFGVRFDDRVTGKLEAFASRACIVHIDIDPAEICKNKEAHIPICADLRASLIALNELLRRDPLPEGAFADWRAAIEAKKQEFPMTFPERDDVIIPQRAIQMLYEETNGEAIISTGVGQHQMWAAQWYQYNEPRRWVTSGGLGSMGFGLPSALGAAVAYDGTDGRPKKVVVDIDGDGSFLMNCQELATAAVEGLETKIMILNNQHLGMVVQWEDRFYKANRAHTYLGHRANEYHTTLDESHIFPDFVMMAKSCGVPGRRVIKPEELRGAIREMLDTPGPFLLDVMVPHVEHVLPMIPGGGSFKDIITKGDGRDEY
Description: (§1) To overexpress the hexahistidine (6xHis)-tagged PiAHAS genes in E. coli strain JM109, plasmids pQE-WT and pQE-MUT were used. These plasmids were constructed by inserting the BamHI-SalI fragment containing the cloned PiAHAS wt and mutant genes into plasmid pQE30 (Qiagen, Hilden, Germany). These plasmids express PiAHAS fused at its N-terminus to the pQE30 6xHis leader. pQE-WT and pQE-MUT were transformed into E. coli for expression. […] The AHAS catalytic activity was determined as previously described (Bar-Ilan A et al. Binding and activation of thiamin diphosphate in acetohydroxyacid synthase. Biochemistry (N.Y.) 2001, 40, 11946-11954). […] Km for pyruvate and Ki for SMM were determined by varying the concentration of the factor in question. Protein concentration was determined by the dye-binding method of Bradford (Bradford MM. A rapid and sensitive method for the quantitation of microgram quantities of protein utilizing the principle of protein-dye binding. Anal. Biochem. 1976, 72, 248-254), with bovine serum albumin as standard. […]
(§2) The Ki was determined to be >30×106, 7 orders of magnitude higher than that of the wild type.

PiAHAS wild-type [2] = biological target: T2, PiAHAS wild-type (Parietochloris incisa (Lobosphaera incisa), UniProt I3VJH2, D350G/R415C); experiment: as above; format: biochemical; settings: wild type; very low concentration of SMM
T2 sequence (I3VJH2 1-707 D350G/R415C): T1 sequence (I3VJH2 1-707 D350G/R415C)
Description: as §1, §2

PiAHAS mutant W605S = biological target: T3, PiAHAS mutant W605S (Lobosphaera incisa, UniProt I3VJH2, W604S); experiment: PiAHAS in vitro enzyme assay, inhibition by SMM (mutant); format: biochemical, Parietochloris incisa; settings: even at high concentrations of 200 μM
T3 sequence (I3VJH2 with tags, fused parts or gaps W604S): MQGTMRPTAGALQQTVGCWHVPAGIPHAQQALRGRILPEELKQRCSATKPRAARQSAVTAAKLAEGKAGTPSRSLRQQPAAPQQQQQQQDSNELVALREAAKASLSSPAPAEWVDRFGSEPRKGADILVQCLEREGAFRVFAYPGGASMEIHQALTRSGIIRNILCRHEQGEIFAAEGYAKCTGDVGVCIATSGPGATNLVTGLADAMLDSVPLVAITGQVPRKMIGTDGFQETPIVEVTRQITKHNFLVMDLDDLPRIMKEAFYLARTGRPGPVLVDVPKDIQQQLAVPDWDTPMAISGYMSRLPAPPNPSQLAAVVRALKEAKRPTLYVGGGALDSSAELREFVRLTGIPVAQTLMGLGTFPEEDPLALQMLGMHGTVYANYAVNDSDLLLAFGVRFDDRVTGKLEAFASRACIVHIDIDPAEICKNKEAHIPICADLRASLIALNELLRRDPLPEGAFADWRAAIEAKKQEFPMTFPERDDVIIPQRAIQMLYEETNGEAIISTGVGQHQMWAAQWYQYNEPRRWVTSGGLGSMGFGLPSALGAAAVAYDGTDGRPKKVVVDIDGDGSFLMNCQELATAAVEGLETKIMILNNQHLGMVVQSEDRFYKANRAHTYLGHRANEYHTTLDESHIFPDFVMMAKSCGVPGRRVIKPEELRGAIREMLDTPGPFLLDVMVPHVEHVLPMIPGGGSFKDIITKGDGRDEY
Description: as §1, §2

COC(=O)c1ccccc1S(=O)(=O)NC(=O)Nc1nc(C)cc(C)n1 [SMM, sulfometuron methyl]
Ki (PiAHAS wild-type [1]): 150 nM | inhibition of enzyme by SMM (PiAHAS wild-type [2]): strongly inhibited | inhibition of enzyme by SMM (PiAHAS mutant W605S): strong resistance
